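Tested at 5 concentrations; 48 h exposure; 96-well plates; endpoints linearly interpolated, else capped at highest concentration. The concentration for full growth arrest is given as TGI.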
Assays:
Assay in all cases: NCI-60 cell line screen, 48 h
[1] = system: RXF 393 renal
[2] = system: T-47D breast
[3] = system: SNB-75 CNS
[4] = system: SF-295 CNS
[5] = system: NCI/ADR-RES ovarian
[6] = system: SK-MEL-5 melanoma
[7] = system: U251 CNS
[8] = system: HT29 colon
[9] = system: MDA-N
[10] = system: OVCAR-8 ovarian
[11] = system: SF-268 CNS
[12] = system: SN12C renal
[13] = system: PC-3 prostate
[14] = system: SW-620 colon
[15] = system: A498 renal
[16] = system: NCI-H460 lung
[17] = system: SK-MEL-2 melanoma
[18] = system: UACC-62 melanoma
[19] = system: SK-OV-3 ovarian
[20] = system: MDA-MB-435
[21] = system: TK-10 renal
[22] = system: MOLT-4 leukemia
[23] = system: MALME-3M melanoma
[24] = system: OVCAR-3 ovarian
[25] = system: M14 melanoma
[26] = system: 786-0 renal
[27] = system: HOP-62 NSCLC
[28] = system: CAKI-1 renal
[29] = system: A549 NSCLC
[30] = system: BT-549 breast
[31] = system: IGROV1 ovarian
[32] = system: UACC-257 melanoma
[33] = system: MDA-MB-231 breast
[34] = system: HCT-116 colon
[35] = system: HOP-92 NSCLC
[36] = system: SF-539 CNS
[37] = system: ACHN renal
[38] = system: CCRF-CEM leukemia
[39] = system: COLO 205 colon
[40] = system: SK-MEL-28 melanoma
[41] = system: SR leukemia
[42] = system: HCT-15 colon
[43] = system: LOX IMVI melanoma
[44] = system: HL-60(TB) leukemia
[45] = system: HCC-2998 colon
[46] = system: NCI-H226 lung
[47] = system: DU-145 prostate
[48] = system: HS 578T breast
[49] = system: RPMI-8226 leukemia
[50] = system: SNB-19 CNS
[51] = system: OVCAR-5 ovarian
[52] = system: KM12 colon
[53] = system: OVCAR-4 ovarian
[54] = system: K-562 leukemia
[55] = system: NCI-H23 lung
[56] = system: EKVX NSCLC
[57] = system: NCI-H522 lung
[58] = system: UO-31 renal
[59] = system: MCF7 breast
[60] = system: KM20L2 colon
[61] = system: M19-MEL melanoma
[62] = system: XF 498 CNS
[63] = system: DMS 273 small cell lung
[64] = system: DLD-1 colon
[65] = system: SNB-78 CNS
[66] = system: LXFL 529 NSCLC
[67] = system: DMS 114 small cell lung

Measured: TGI

O=c1oc2ccc3ccccc3c2cc1-c1nc2ccc([N+](=O)[O-])cc2o1
> 100 µM: [2] | [3] | [5] | [6] | [7] | [8] | [9] | [10] | [12] | [13] | [14] | [16] | [17] | [18] | [19] | [20] | [22] | [23] | [24] | [31] | [32] | [33] | [34] | [38] | [39] | [40] | [41] | [42] | [44] | [45] | [46] | [47] | [48] | [49] | [51] | [52] | [53] | [54] | [56] | [57]
> 45.2 µM: [27]
> 78.6 µM: [21]
19.1 µM: [1]
> 49.5 µM: [4]
> 28.6 µM: [50]
> 75.3 µM: [25]
> 79.1 µM: [29]
> 95 µM: [30]
> 91.4 µM: [28]
> 31.4 µM: [59]
> 55.3 µM: [26]
> 90.2 µM: [11]
> 92.1 µM: [58]
> 86.9 µM: [55]
26.3 µM: [36]
> 91 µM: [35]
> 88.4 µM: [15]
> 24.2 µM: [37]
> 91.3 µM: [43]

O=c1c2c(c1=O)-c1ccccc1CN2
> 100 µM: [60] | [1] | [3] | [6] | [7] | [8] | [61] | [10] | [11] | [12] | [14] | [15] | [16] | [62] | [17] | [18] | [19] | [21] | [63] | [22] | [23] | [24] | [25] | [26] | [27] | [28] | [29] | [31] | [32] | [34] | [35] | [36] | [64] | [37] | [38] | [39] | [40] | [42] | [65] | [43] | [44] | [45] | [46] | [66] | [49] | [50] | [51] | [52] | [53] | [54] | [55] | [67] | [56] | [57] | [58]

CC1C2CC=CC(=O)[C@@]2(C)CCC12OCCO2 (stereo not given in full)
> 100 µM: [60] | [1] | [3] | [4] | [7] | [8] | [61] | [10] | [11] | [12] | [14] | [15] | [16] | [17] | [18] | [19] | [21] | [63] | [22] | [23] | [24] | [25] | [26] | [27] | [28] | [29] | [31] | [32] | [34] | [35] | [36] | [64] | [37] | [38] | [40] | [41] | [65] | [45] | [46] | [66] | [50] | [51] | [52] | [53] | [54] | [55] | [67] | [56] | [57] | [58]
65.4 µM: [6]

Source: PubChem BioAssay (NCI)
